Results on 1 substance are retold here after patent US20040009899A1, “Treating dominant disorders” (priority 2002, published 2004).

Holding throughout (assay type): in vivo, mouse
Series [1] concerns R6/2 mice. The experiment in a line: Bar test to assess motor skill. The following applies: compared to untreated or saline treated R6/2 mice. The source says:
Bar test to assess motor skill: Each mouse was held by its tail and allowed to grasp a bar (0.25 cm in diameter, 60 cm long) suspended 30 cm above a padded bench. After the mouse had firmly grasped the bar, the test was begun by releasing its tail. The mouse was allowed two minutes to “escape” by climbing along the bar to one of the bar supports. The mouse was given both performance and time ratings. Performance ratings were based on the following scale: 0, unable to hold bar; 1, holds bar, unable to bring hind limbs to bar; 2, holds bar, draws hind limbs to bar (i.e., 3 paws firmly on bar); 3, holds bar, moves along bar (i.e., moves at least 2 inches in a coordinated manner along bar); 4, escapes (i.e., mouse touches a bar support with one paw). Time ratings were based on the following scale: 0, unable to hold bar (0-3 seconds); 1, holds bar for 4-30 seconds; 2, holds bar for 31-60 seconds; 3, holds bar for 61-90 seconds; 4, holds bar for 91-120 seconds. If the mouse had not reached one of the bar supports by the end of the two minute test period it was removed from the bar. […]
At 9 weeks of age, the mice in each group received saline (group 1) or HDs at 2.0 mg/kg, 5.0 mg/kg, or 20.0 mg/kg (groups 2, 3, and 4, respectively) by i.p. injection every 48 hours. […] Weight stability, clasping behavior, motility, and motor skill were assessed weekly during the treatment period. […]

Series [2] relates to R6/2 mice. The series is described as follows: Open field test to assess motility. The following applies: for level of motility (open field test): R6/2 mice. How it is done:
Open field test to assess motility: Each mouse was confined for 10 minutes in a Plexiglas locomotion chamber equipped with a laser source and detector. As the mouse passed between the laser source and detector, the laser beam was “broken” and the event was automatically recorded. The number of beam breaks for B6CBA mice treated with the HDs PNA oligomer was compared to that of saline-treated or untreated control B6CBA mice. This number was directly related to general activity of the mice.
Experiments were conducted to determine whether PNA-mediated inhibition of mutant huntingtin expression increased survival and/or reversed features of pathophysiology. R6/2 and non-transgenic mice were divided into two groups of three to five mice each, and treated with either HDs or ACSF for approximately ten weeks, beginning at five to six weeks of age. Treated animals received a dose of 0.15 mg/kg of the HDs PNA oligomer, administered by continuous infusion through an Alzet pump. All ACSF-treated transgenic mice died by three months of age.
In other experiments, R6/2 mice were divided into five groups (designated groups 1-5) containing eight to ten animals each. Groups 1-4 received either saline (group 1) or a specific amount of HDs (groups 2-4). Group 5 included untreated R6/2 mice. A sixth group included untreated non-transgenic B6CBA control mice. At 8 weeks of age, each mouse was weighed to establish a weight stability baseline. Baselines for clasping behavior, motility, and motor skill were established at 9 weeks of age using the methods described in Example 1.
At 9 weeks of age, the mice in each group received saline (group 1) or HDs at 2.0 mg/kg, 5.0 mg/kg, or 20.0 mg/kg (groups 2, 3, and 4, respectively) by i.p. injection every 48 hours. The injections continued through 13 weeks of age (i.e., treatment for […]). Weight stability, clasping behavior, motility, and motor skill were assessed weekly during the treatment period. At the time of death or after the treatment period, the brain of each mouse was removed using standard methods. The brains were divided into hemispheres, and one hemisphere of each brain was saved for protein and mRNA analysis. The remaining hemispheres were fixed directly in 10% formalin for 5-7 days. After fixing, the brain hemispheres were weighed individually and processed for sectioning and pathophysiology.

The subject of a further series is GAPDH. The series is described as follows: Western immunoblot of GAPDH (non-targeted gene) in PNA-treated R6/1 mice. The conditions noted are these: any animal tested. How it is done:
Following the treatment period, mice were anesthetized with ether and sacrificed by cervical dislocation. Whole brains and livers were removed and placed in 0.9% saline. Striatum tissue was dissected from whole brains, and liver tissue was finely minced. The tissues were placed in separate 2 mL microfuge tubes on dry ice and then suspended in 20 volumes of RIPA buffer (50 mM Tris pH 8, 150 mM NaCl, 1 mM EDTA, 1 mM EGTA, 0.5% sodium deoxycholate, 0.1% SDS, 1% TritonX-100, 2 μg/mL leupeptin, 2 μg/mL aprotinin, 1 μg/mL pepstatin, 1 mM phenylmethylsulfonylfluoride) per gram of tissue. Suspended tissues were homogenized by sonication, and the homogenates were clarified by centrifugation at 12,000×g for 20 minutes at 4° C. Following centrifugation, the supernatants were removed and protein concentrations were quantified by Bradford assays using a BSA standard.
Immunoblotting: Supernatants from the tissue homogenates were mixed with 1/6 volume of 6×SDS sample buffer (350 mM Tris pH 6.8, 10% SDS, 30% glycerol, 15% 2-mercaptoethanol, 0.012% bromophenol blue). Equal amounts of protein were directly loaded onto 10% acrylamide/0.05% bisacrylamide gels without heat denaturation. […] Protein bands were detected on film by chemiluminescence. […]
For orientation: A western blot detects proteins with antibodies after separation by electrophoresis.

Regarding “HDs: sense PNA oligomer, 14 residues, 5′-GGACTGCCGTGCCG-3′ (SEQ ID NO:3), specific for the expanded human HD allele (all peptide nucleic acid (PNA))”, the “motor skill (bar test)” value in the series on R6/2 mice [1] (5.0 mg/kg i.p. every 48 hours) and in the series on R6/2 mice [1] (20.0 mg/kg i.p. every 48 hours) was “increased motor skill” in each case. For the same substance, the “level of motility (open field test)” value with R6/2 mice [2] (2.0 mg/kg i.p. every 48 hours, compared to untreated R6/2 mice) was “no difference in motility”; with R6/2 mice [2] (5.0 mg/kg i.p. every 48 hours, lower than nontransgenic controls) it was “increased as compared to untreated R6/2 mice”; with R6/2 mice [2] (20.0 mg/kg i.p. every 48 hours, lower than nontransgenic controls) it was “increased as compared to untreated R6/2 mice”. Moreover, in the series with R6/2 mice [2] (surviving R6/2 mice, 0.15 mg/kg continuous infusion by Alzet pump), the “motility as compared to non-transgenic animals” value is listed as “decline in motility”. Moreover, the “inhibition of non-targeted genes such as GAPDH” value in the series with GAPDH is given as “No measurable inhibition”.
